# According to PubChem BioAssay (NCI):
#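 48-hour exposure; five concentrations; linearly interpolated endpoints. GI50 = concentration required for 50% inhibition of growth. TGI is the concentration that stops growth completely.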
# Legend:
# Experiment in all cases: growth of human tumour cells (NCI), 48 h
# A549 NSCLC = test system: A549 NSCLC
# DU-145 prostate = test system: DU-145 prostate
# EKVX NSCLC = test system: EKVX NSCLC
# HCT-15 colon = test system: HCT-15 colon
# IGROV1 ovarian = test system: IGROV1 ovarian
# KM12 colon = test system: KM12 colon
# LOX IMVI melanoma = test system: LOX IMVI melanoma
# MDA-MB-231 breast = test system: MDA-MB-231 breast
# OVCAR-3 ovarian = test system: OVCAR-3 ovarian
# SK-MEL-5 melanoma = test system: SK-MEL-5 melanoma
Compound,GI50 (A549 NSCLC) [µM],TGI (A549 NSCLC) [µM],GI50 (DU-145 prostate) [µM],TGI (DU-145 prostate) [µM],GI50 (EKVX NSCLC) [µM],TGI (EKVX NSCLC) [µM],GI50 (HCT-15 colon) [µM],TGI (HCT-15 colon) [µM],GI50 (IGROV1 ovarian) [µM],TGI (IGROV1 ovarian) [µM],GI50 (KM12 colon) [µM],TGI (KM12 colon) [µM],GI50 (LOX IMVI melanoma) [µM],TGI (LOX IMVI melanoma) [µM],GI50 (MDA-MB-231 breast) [µM],TGI (MDA-MB-231 breast) [µM],GI50 (OVCAR-3 ovarian) [µM],TGI (OVCAR-3 ovarian) [µM],GI50 (SK-MEL-5 melanoma) [µM],TGI (SK-MEL-5 melanoma) [µM]
Nc1nn(C(=O)Nc2c(F)cccc2F)c2ccccc12,48.5,> 100,62.3,> 100,83.9,> 100,40.9,> 100,7.7,> 100,86.2,> 100,49.3,> 100,98.7,> 100,65.7,> 100,39.7,> 100
O=c1cccc2n1CC1CNC[C@H]2C1,–,> 100,–,> 100,–,> 100,–,> 100,–,> 100,–,> 100,–,> 100,–,> 100,–,> 100,–,> 100
COC(=O)c1oc2c(C(=O)/C=C/c3ccc(OC)cc3)c(OCCN3CCOCC3)ccc2c1C,2.22,6.07,1.75,4.24,1.87,7.49,1.46,3.12,1.85,4.55,1.77,3.78,1.4,2.79,1.64,5.18,1.89,5.69,1.69,3.17
COc1ccc(OC)c(/C=C/c2ccnc3ccccc23)c1,–,14.7,–,13.1,–,10.7,–,17.3,–,17.4,–,11.5,–,14.4,–,9.44,–,1.76,–,12.9
CC1(C)CCC(C)(C)c2cc(NC(=O)c3ccc(C(=O)O)cc3)ccc21,–,> 100,–,> 100,–,> 100,–,> 64,–,> 75.6,–,59.5,–,48.3,–,> 90.5,–,> 57.9,–,> 93.2
CN(C)C=Nc1c(I)cc(I)c(CCC(=O)O)c1I,> 100,> 100,> 100,> 100,> 100,> 100,> 100,> 100,> 100,> 100,> 100,> 100,> 100,> 100,> 100,> 100,> 100,> 100,> 100,> 100
COc1ccc2c(c1)C(c1cc(OC)c3c(c1)OCO3)C1=C(COC1=O)N2 (stereo not given),0.445,> 100,0.397,3.16,3.44,> 100,0.472,> 65.1,0.687,> 84.5,0.227,3.25,0.66,> 100,0.654,> 39.8,0.205,0.481,0.262,1.9
